Measurements taken from ChEMBL document CHEMBL4190258, “Spirograterpene A, a Tetracyclic Spiro-Diterpene with a Fused 5/5/5/5 Ring System from the Deep-Sea-Derived Fungus Penicillium granulatum MCCC 3A00475” (J Nat Prod, 2017).
Values after ≈ are worked out from the molar mass of the structure shown.

Experiments:
[1] = test system: RBL-2H3; assay: Antiallergic activity in DNP-BSA-stimulated rat RBL2H3 cells assessed as inhibition of anti-DNP-IgE-mediated degranulation by measuring beta-hexosaminidase activity at 20 microg/ml pre-incubated for 1 hr followed by DNP-BSA stimulation by fluorescence assay relative to control; format: functional
[2] = test system: Staphylococcus aureus; assay: Antibacterial activity against methicillin-resistant Staphylococcus aureus incubated for 18 hrs by broth microdilution method; format: functional
[3] = test system: HL-60; assay: Cytotoxicity against human HL60 cells assessed as reduction in cell viability; format: functional, cell-based

| Structure (SMILES) | inhibition at 20 µg/mL [1] | MIC [2] | IC50 [3] |
| --- | --- | --- | --- |
| C[C@H]1[C@H](O)CC(=O)[C@]2(C)CC[C@H]3[C@@H]4[C@@](C)(CO)CC[C@]4(C)C[C@]132 | 4% | – | – |
| C[C@@H]1C=CC(=O)[C@@]2(C)CC[C@H]3[C@@]12C[C@]1(C)CCC(C)(C)[C@]31C | – | 8 µg/mL (≈ 26.6 µM) | – |
| CCOC(=O)N1CCC(=C2c3ccc(Cl)cc3CCc3cccnc32)CC1 [LORATADINE] | 35% | – | – |
| C[C@@H]1C[C@@H](O)[C@H](C)[C@@]12CCC1=C2C[C@@]2(C)CC[C@](C)(C(=O)O)[C@@H]12 | 18% | – | – |
| C[C@@H]1C=CC(=O)[C@@]2(C)CC[C@@H]3[C@@H]4[C@@](C)(CC[C@@]4(C)CO)C[C@@]132 | 10% | – | 38 nM |
